Reference: patent US20120214862A1, “MODULATION OF FACTOR 7 EXPRESSION” (ISIS Pharmaceuticals, Inc., priority 2009, published 2012)
In the oligonucleotide strings, read from the 5' end, every base follows the letter of its sugar. An asterisk marks phosphorothioate; unmarked linkages are phosphodiester. Other units and linkages are bracketed, terminal groups are in braces. A string of capitals states the bases alone. e = 2'-O-(2-methoxyethyl) (MOE); [5mC] = 5-methylcytosine; d = 2'-deoxy (DNA)

Tested on: human Factor 7 mRNA
Assay: Antisense inhibition of human Factor 7 mRNA in HepB3 cells, lipofectin, 50 nM, real-time RT-PCR
Assay type: cell-based
Conditions: for % Inhibition (human Factor 7 mRNA): 50 nM, ~24 h
Outline: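 Percent inhibition of Factor 7 mRNA, relative to untreated control, comes from real-time RT-PCR with RIBOGREEN normalization, using primer probe set RTS 2927 in some runs. RNA was taken roughly 24 h after lipofectin delivery of 50 nM oligonucleotide into HepB3 cells.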

[1] = HepB3 cells, gapmers targeted to nucleobases 13760 to 13789 of SEQ ID NO: 1 (Table 10)
[2] = HepB3 cells, lipofectin, 50 nM antisense oligonucleotide, approximately 24 hours, primer probe set RTS 2927, relative to untreated control
[3] = Example 1, HepB3 cells, lipofectin, relative to untreated control cells
[4] = Example 4, HepB3 cells, lipofectin, relative to untreated control
[5] = HepB3 cells, gapmers targeted to nucleobases 11830 to 11869 of SEQ ID NO: 1 (Table 9)

422181 (antisense eG*e[5mC]*e[5mC]*dA*d[5mC]*d[5mC]*d[5mC]*dG*d[5mC]*d[5mC]*dG*dG*d[5mC]*dT*d[5mC]*dT*dG*e[5mC]*eT*e[5mC]) [compound 422181]
% Inhibition of human Factor 7 mRNA levels [1]: 66%

416523 (antisense eT*e[5mC]*eT*e[5mC]*eG*dA*dG*dG*dG*d[5mC]*dT*dG*dA*dG*dA*eA*eT*eT*eG*e[5mC]) [compound 416523]
% Inhibition of human Factor 7 mRNA levels [2]: 18%

407920 (antisense eT*eG*eA*eG*e[5mC]*dG*d[5mC]*dA*dT*dG*dA*dG*d[5mC]*dT*dT*eT*eT*eG*e[5mC]*eA) [compound 407920]
% Inhibition (human Factor 7 mRNA) [3]: 65%

422122 (antisense eA*eG*e[5mC]*eG*e[5mC]*dG*dG*dA*dA*dG*dA*dA*dG*dG*dG*eA*e[5mC]*eG*eG*eA) [compound 422122]
% Inhibition (human Factor 7 mRNA) [4]: 24%

407938 (antisense e[5mC]*eA*e[5mC]*e[5mC]*e[5mC]*dA*dG*d[5mC]*dG*dA*dA*dG*dG*dG*dA*eG*eA*eA*eA*eT) [compound 407938]
% Inhibition (human Factor 7 mRNA) [3]: 60%

422259 (antisense e[5mC]*eG*d[5mC]*d[5mC]*dA*d[5mC]*d[5mC]*d[5mC]*dG*d[5mC]*d[5mC]*dG*dG*d[5mC]*dT*e[5mC]*eT*eG*e[5mC]*eT) [compound 422259]
% Inhibition of human Factor 7 mRNA levels [1]: 61%

416555 (antisense eA*eA*eA*eG*eA*dT*d[5mC]*dA*dG*dG*d[5mC]*dA*dA*dA*dG*eA*eT*e[5mC]*e[5mC]*e[5mC]) [compound 416555]
% Inhibition of human Factor 7 mRNA levels [2]: 6%

422273 (antisense eT*eA*d[5mC]*dT*dG*dA*dG*d[5mC]*dG*d[5mC]*dG*dG*dA*dA*dG*eA*eA*eG*eG*eG) [compound 422273]
% Inhibition (human Factor 7 mRNA) [4]: 0%

407955 (antisense eT*eG*eT*eG*eA*dA*dA*dT*dA*dT*d[5mC]*dA*dT*dT*dG*eA*e[5mC]*eA*eA*eG) [compound 407955]
% Inhibition (human Factor 7 mRNA) [3]: 3%

407657 (antisense eG*eG*eG*eA*e[5mC]*dT*d[5mC]*dA*dG*d[5mC]*dA*dA*dG*dA*dG*eT*eG*e[5mC]*eA*eG) [compound 407657]
% Inhibition (human Factor 7 mRNA) [3]: 26%

422264 (antisense e[5mC]*eG*dG*dA*dA*dG*dA*dA*dG*dG*dG*dA*d[5mC]*dG*dG*eA*eA*eG*eG*eT) [compound 422264]
% Inhibition (human Factor 7 mRNA) [4]: 24%

416444 (antisense eA*e[5mC]*eA*eG*eT*dT*d[5mC]*d[5mC]*dG*dG*d[5mC]*d[5mC]*d[5mC]*dT*d[5mC]*eG*eA*eA*eG*eG) [compound 416444]
% Inhibition of human Factor 7 mRNA levels [2]: 24%

407658 (antisense eG*e[5mC]*eT*eT*eG*d[5mC]*d[5mC]*dG*dG*dA*dG*dT*d[5mC]*dT*dG*eA*eG*eT*eG*eG) [compound 407658]
% Inhibition (human Factor 7 mRNA) [3]: 16%

422232 (antisense eG*eT*d[5mC]*dA*dG*dG*dG*d[5mC]*dT*dG*dG*dT*dT*dT*dT*eG*eG*eA*eG*eG) [compound 422232]
% Inhibition of human Factor 7 mRNA levels [5]: 41%

422182 (antisense e[5mC]*eG*e[5mC]*d[5mC]*dA*d[5mC]*d[5mC]*d[5mC]*dG*d[5mC]*d[5mC]*dG*dG*d[5mC]*dT*d[5mC]*dT*eG*e[5mC]*eT) [compound 422182]
% Inhibition of human Factor 7 mRNA levels [1]: 11%

416457 (antisense eG*eG*eA*eT*eG*dA*dT*dG*dA*d[5mC]*d[5mC]*dT*dG*d[5mC]*dG*e[5mC]*e[5mC]*eA*e[5mC]*e[5mC]) [compound 416457]
% Inhibition of human Factor 7 mRNA levels [2]: 48%

407909 (antisense e[5mC]*e[5mC]*eA*eT*e[5mC]*d[5mC]*dG*dA*dG*dT*dA*dG*d[5mC]*d[5mC]*dG*eG*e[5mC]*eA*e[5mC]*eA) [compound 407909]
% Inhibition (human Factor 7 mRNA) [3]: 77%

422297 (antisense e[5mC]*e[5mC]*d[5mC]*dG*dA*dG*dT*dT*d[5mC]*dT*dG*d[5mC]*dA*dG*dG*eA*eG*e[5mC]*eG*eG) [compound 422297]
% Inhibition of human Factor 7 mRNA levels (HepB3 cells, gapmers (5-10-5, 3-14-3, 2-13-5 MOE) targeted to nucleobases 4868 to 4899 of SEQ ID NO: 1): 63%

407946 (antisense eT*e[5mC]*e[5mC]*eA*eA*dA*dA*dA*dT*dG*dA*dA*dT*d[5mC]*dA*eT*eG*eG*eG*e[5mC]) [compound 407946]
% Inhibition (human Factor 7 mRNA) [3]: 5%

416519 (antisense eA*eA*eA*eT*eA*dT*dG*dG*dG*dA*d[5mC]*d[5mC]*d[5mC]*dA*dA*eA*eG*eT*eG*eG) [compound 416519]
% Inhibition of human Factor 7 mRNA levels [2]: 9%

407646 (antisense eG*eG*eT*eG*eA*dT*dG*d[5mC]*dT*dT*d[5mC]*dT*dG*dA*dA*eT*eT*eG*eT*e[5mC]) [compound 407646]
% Inhibition (human Factor 7 mRNA) [3]: 81%

416425 (antisense eA*eA*eG*e[5mC]*eA*dG*dA*dA*dG*dG*d[5mC]*dA*dG*dA*dG*eG*eA*eG*e[5mC]*e[5mC]) [compound 416425]
% Inhibition of human Factor 7 mRNA levels [2]: 13%

407653 (antisense eA*eA*eT*eA*eT*d[5mC]*dA*dT*dT*dG*dA*d[5mC]*dA*dA*dG*eG*eG*e[5mC]*eT*eG) [compound 407653]
% Inhibition (human Factor 7 mRNA) [3]: 21%

416442 (antisense eA*eG*e[5mC]*eA*eG*dA*dT*dA*dT*dA*dG*dG*dA*d[5mC]*dT*eG*eG*eA*eG*e[5mC]) [compound 416442]
% Inhibition of human Factor 7 mRNA levels [2]: 57%

422115 (antisense eG*e[5mC]*eG*e[5mC]*e[5mC]*dA*d[5mC]*d[5mC]*d[5mC]*dG*d[5mC]*d[5mC]*dG*dG*d[5mC]*eT*e[5mC]*eT*eG*e[5mC]) [compound 422115]
% Inhibition of human Factor 7 mRNA levels [1]: 66%

422102 (antisense e[5mC]*eT*eG*eA*eG*dG*dA*dG*dA*d[5mC]*dA*dA*dT*dG*dG*eT*e[5mC]*eA*eG*eG) [compound 422102]
% Inhibition of human Factor 7 mRNA levels [5]: 62%

407919 (antisense eT*e[5mC]*eG*eA*eT*dG*dT*dA*d[5mC]*dT*dG*dG*dG*dA*dG*eA*e[5mC]*e[5mC]*e[5mC]*eT) [compound 407919]
% Inhibition (human Factor 7 mRNA) [3]: 84%

407664 (antisense e[5mC]*eA*eG*eG*eG*d[5mC]*dG*dA*dG*dG*d[5mC]*dA*dA*d[5mC]*d[5mC]*e[5mC]*e[5mC]*eG*eT*eG) [compound 407664]
% Inhibition (human Factor 7 mRNA) [3]: 70%

407651 (antisense eA*eG*e[5mC]*e[5mC]*eT*d[5mC]*dA*dA*dA*d[5mC]*dA*dT*d[5mC]*dT*dA*eT*e[5mC]*eA*eA*eA) [compound 407651]
% Inhibition (human Factor 7 mRNA) [3]: 32%

407613 (antisense eT*eG*e[5mC]*eT*e[5mC]*dA*d[5mC]*dA*dG*d[5mC]*d[5mC]*dG*d[5mC]*d[5mC]*dG*eT*eT*e[5mC]*eT*e[5mC]) [compound 407613]
% Inhibition (human Factor 7 mRNA) [3]: 66%

407887 (antisense e[5mC]*e[5mC]*eA*eG*eG*d[5mC]*dA*dG*d[5mC]*d[5mC]*d[5mC]*dT*dG*dA*dA*eG*e[5mC]*e[5mC]*e[5mC]*eA) [compound 407887]
% Inhibition (human Factor 7 mRNA) [3]: 78%

422285 (antisense eG*e[5mC]*dA*d[5mC]*dA*d[5mC]*dA*dT*dG*dG*dA*dG*dT*d[5mC]*dA*eG*e[5mC]*eA*eT*e[5mC]) [compound 422285]
% Inhibition (human Factor 7 mRNA) (Example 6 microwalk, nucleobases 15098 to 15122 of SEQ ID NO: 1, HepB3, lipofectin): 39%

407637 (antisense eG*eT*eA*e[5mC]*eT*dG*dG*dG*dA*dG*dA*d[5mC]*d[5mC]*d[5mC]*dT*eG*eG*eT*eG*eT) [compound 407637]
% Inhibition (human Factor 7 mRNA) [3]: 71%

407897 (antisense eG*e[5mC]*eT*eT*eG*dG*dT*dG*d[5mC]*d[5mC]*d[5mC]*dG*dT*dG*dT*eG*eG*eT*e[5mC]*eA) [compound 407897]
% Inhibition (human Factor 7 mRNA) [3]: 77%
